# Source: patent US8889671B2, “Compounds and methods for treating bacterial infections” (AstraZeneca AB, priority 2013, dated 2014)
# Test system: Staphylococcus aureus
# Experiment: S. aureus neutropenic mouse thigh infection model, PK/PD
# Details: for AUC value for 1-log reduction / AUC value for stasis: ip, with ABT
# [1] = S. aureus MRSA neutropenic dose response
# [2] = S. aureus MRSA, neutropenic mouse thigh
# [3] = S. aureus MSSA neutropenic dose response
# [4] = S. aureus MSSA, neutropenic mouse thigh
# [5] = S. aureus USA100, neutropenic mouse thigh
# [6] = S. aureus USA100 neutropenic dose response
# [7] = S. aureus USA300, neutropenic mouse thigh
# [8] = S. aureus USA300 neutropenic dose response
smiles,measurement,setting,value
"C[C@@H]1CN2c3c(cc4c(N5C(=O)OC[C@@H]5C)noc4c3F)CC3(C(=O)NC(=O)NC3=O)[C@H]2[C@H](C)O1 [Example 5, (2R,4S,4aS)-11-Fluoro-2,4-dimethyl-8-[(4S)-4-methyl-2-oxo-1,3-oxazolidin-3-yl]-1,2,4,4a-tetrahydro-2′H,6H-spiro[1,4-oxazino[4,3-a][1,2]oxazolo[4,5-g]quinoline-5,5′-pyrimidine]-2′,4′,6′(1′H,3′H)-trione]","AUC/MIC (free), 1-log reduction ± SEM",[1],96 ± 35
same,"AUC/MIC (free), EC50 ± SEM",[1],53 ± 25
same,"AUC/MIC (free), Stasis ± SEM",[1],43 ± 5
same,AUC value for 1-log reduction,[2],55 μg·h/mL
same,AUC value for stasis,[2],24 µg·h/mL
same,"AUC/MIC (free), 1-log reduction ± SEM",[3],245 ± 81
same,"AUC/MIC (free), EC50 ± SEM",[3],71 ± 28
same,"AUC/MIC (free), Stasis ± SEM",[3],98 ± 17
same,AUC value for 1-log reduction,[4],69 μg·h/mL
same,AUC value for stasis,[4],28 µg·h/mL
same,AUC value for 1-log reduction,[5],47 μg·h/mL
same,AUC value for stasis,[5],25 µg·h/mL
same,"AUC/MIC (free), 1-log reduction ± SEM",[6],83 ± 23
same,"AUC/MIC (free), EC50 ± SEM",[6],34 ± 14
same,"AUC/MIC (free), Stasis ± SEM",[6],43 ± 5
same,AUC value for 1-log reduction,[7],150 μg·h/mL
same,AUC value for stasis,[7],91 µg·h/mL
same,"AUC/MIC (free), 1-log reduction ± SEM",[8],132 ± 16
same,"AUC/MIC (free), EC50 ± SEM",[8],73 ± 38
same,"AUC/MIC (free), Stasis ± SEM",[8],80 ± 5
